Data published in patent US9296704B2, “Substituted pyrimidines as protein kinase inhibitors” (CELGENE AVILOMICS RESEARCH, INC., priority 2007, dated 2016).

Assays:
ITK = molecular target: T1, ITK (Homo sapiens, UniProt Q08881); test: Omnia assay for potency against ITK; type: biochemical; details: read-out: ITK inhibition
T1 sequence (Q08881 1-620): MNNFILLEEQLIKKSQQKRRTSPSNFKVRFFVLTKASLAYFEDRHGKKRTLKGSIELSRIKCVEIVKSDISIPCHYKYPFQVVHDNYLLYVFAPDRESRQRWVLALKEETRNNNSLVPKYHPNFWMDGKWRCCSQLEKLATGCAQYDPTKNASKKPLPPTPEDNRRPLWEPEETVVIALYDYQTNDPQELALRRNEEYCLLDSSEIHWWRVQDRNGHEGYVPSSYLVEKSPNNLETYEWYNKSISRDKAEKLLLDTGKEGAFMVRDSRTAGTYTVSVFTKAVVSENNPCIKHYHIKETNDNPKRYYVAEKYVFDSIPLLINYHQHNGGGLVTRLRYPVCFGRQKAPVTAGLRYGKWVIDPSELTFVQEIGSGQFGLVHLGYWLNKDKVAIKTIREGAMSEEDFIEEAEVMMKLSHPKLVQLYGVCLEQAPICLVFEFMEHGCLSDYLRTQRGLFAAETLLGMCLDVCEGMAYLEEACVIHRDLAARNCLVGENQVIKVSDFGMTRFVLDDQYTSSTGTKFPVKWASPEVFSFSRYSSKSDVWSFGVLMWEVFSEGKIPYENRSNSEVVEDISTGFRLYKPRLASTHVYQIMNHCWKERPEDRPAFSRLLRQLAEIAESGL
Source text: The protocol below describes continuous-read kinase assays to measure inherent potency of compounds against active forms of EGFR (WT) and EGFR (T790M/L858R) enzymes. The mechanics of the assay platform are best described by the vendor (Invitrogen, Carlsbad, Calif.) on their website at the following URL: http://www.invitrogen.com/content.cfm?pageid=11338 or http://www.invitrogen.com/site/us/en/home/Products-and-Services/Applications/Drug-Discovery/Target-and-Lead-Identification-and-Validation/KinaseBiology/KB-Misc/Biochemical-Assays/Omnia-Kinase-Assays.html.
Briefly, 10× stocks of EGFR-WT (PV3872) from Invitrogen and EGFR-T790M/L858R (40350) from BPS Bioscience, San Diego, Calif., 1.13×ATP (AS001A) and appropriate Tyr-Sox conjugated peptide substrates (KCZI001) were prepared in 1× kinase reaction buffer consisting of 20 mM Tris, pH 7.5, 5 mM MgCl2, 1 mM EGTA, 5 mM β-glycerophosphate, 5% glycerol (10× stock, KB002A) and 0.2 mM DTT (DS001A). 5 μL of each enzyme were pre-incubated in a Corning (#3574) 384-well, white, non-binding surface microtiter plate (Corning, NY) for 30 min. at 27° C. with a 0.5 μL volume of 50% DMSO and serially diluted compounds prepared in 50% DMSO. Kinase reactions were started with the addition of 45 μL of the ATP/Tyr-Sox peptide substrate mix and monitored every 30-90 seconds for 60 minutes at λex360/λem485 in a Synergy^4 plate reader from BioTek (Winooski, Vt.). At the conclusion of each assay, progress curves from each well were examined for linear reaction kinetics and fit statistics (R^2, 95% confidence interval, absolute sum of squares). Initial velocity (0 minutes to ˜30 minutes) from each reaction was determined from the slope of a plot of relative fluorescence units vs time (minutes) and then plotted against inhibitor concentration to estimate IC50 from log [Inhibitor] vs Response, Variable Slope model in GraphPad Prism from GraphPad Software (San Diego, Calif.).
This example describes continuous-read kinase assays to measure inherent potency of compound against active forms of ITK enzymes as described in Example 10 above except that the modified ITK-optimized reagent conditions are: • [ITK]=10 nM, [ATP]=25 μM, [Y6-Sox]=10 μM (ATP KMapp=33 μM).

EGFR (T790M/L858R) = molecular target: T2, EGFR (T790M/L858R) (Homo sapiens, UniProt P00533, L858R/T790M); test: Omnia continuous-read kinase assay, EGFR (T790M/L858R); type: biochemical; details: read-out: EGFR (T790M/L858R) inhibiton
T2 construct: purchased BPS Bioscience 40350
T2 sequence (P00533 25-1210 T790M/L858R): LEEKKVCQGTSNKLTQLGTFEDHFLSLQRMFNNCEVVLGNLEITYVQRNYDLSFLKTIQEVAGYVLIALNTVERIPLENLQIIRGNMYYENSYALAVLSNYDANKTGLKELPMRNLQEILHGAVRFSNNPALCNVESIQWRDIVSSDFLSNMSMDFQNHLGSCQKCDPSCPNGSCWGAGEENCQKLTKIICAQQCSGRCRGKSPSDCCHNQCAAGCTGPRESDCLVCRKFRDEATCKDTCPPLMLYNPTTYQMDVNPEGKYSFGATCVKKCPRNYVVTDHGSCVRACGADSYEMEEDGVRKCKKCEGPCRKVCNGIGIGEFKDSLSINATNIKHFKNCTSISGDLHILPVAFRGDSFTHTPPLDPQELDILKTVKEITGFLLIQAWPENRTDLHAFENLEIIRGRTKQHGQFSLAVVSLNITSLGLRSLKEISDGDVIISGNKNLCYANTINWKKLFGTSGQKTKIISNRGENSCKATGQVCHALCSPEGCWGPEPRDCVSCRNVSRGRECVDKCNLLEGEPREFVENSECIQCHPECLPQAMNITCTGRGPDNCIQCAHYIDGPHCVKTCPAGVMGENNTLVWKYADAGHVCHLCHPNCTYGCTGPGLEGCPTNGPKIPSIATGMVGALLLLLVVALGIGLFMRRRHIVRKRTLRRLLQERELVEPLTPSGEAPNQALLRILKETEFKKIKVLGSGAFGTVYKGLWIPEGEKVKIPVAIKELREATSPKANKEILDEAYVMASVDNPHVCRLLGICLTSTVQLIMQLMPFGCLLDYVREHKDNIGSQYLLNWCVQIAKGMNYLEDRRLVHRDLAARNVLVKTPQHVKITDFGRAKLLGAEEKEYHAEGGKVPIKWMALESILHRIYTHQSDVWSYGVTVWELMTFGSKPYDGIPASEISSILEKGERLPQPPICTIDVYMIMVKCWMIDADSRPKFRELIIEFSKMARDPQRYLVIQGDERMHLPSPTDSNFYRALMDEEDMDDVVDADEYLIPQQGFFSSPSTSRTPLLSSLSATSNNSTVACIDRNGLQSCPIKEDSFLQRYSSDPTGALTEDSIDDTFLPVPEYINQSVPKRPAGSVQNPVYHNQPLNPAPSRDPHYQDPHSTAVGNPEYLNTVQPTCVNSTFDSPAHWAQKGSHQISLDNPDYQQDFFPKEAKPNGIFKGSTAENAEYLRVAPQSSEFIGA
Procedure, shortened: (§1)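 Enzyme pre-incubated 30 min at 27 °C with compound, then ATP/Y12-Sox peptide added; fluorescence (ex360/em485) read continuously 60 min in 20 mM Tris pH 7.5, 5 mM MgCl2, 0.2 mM DTT. WT: 5 nM enzyme, […]; T790M/L858R: 3 nM enzyme, […]. IC50 from initial velocities, variable-slope fit.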

EGFR (WT) = molecular target: T3, EGFR (WT) (Homo sapiens, UniProt P00533); test: Omnia continuous-read kinase assay, EGFR (WT); type: biochemical; details: read-out: EGFR inhibtion
T3 construct: purchased Invitrogen PV3872
T3 sequence (P00533 25-1210): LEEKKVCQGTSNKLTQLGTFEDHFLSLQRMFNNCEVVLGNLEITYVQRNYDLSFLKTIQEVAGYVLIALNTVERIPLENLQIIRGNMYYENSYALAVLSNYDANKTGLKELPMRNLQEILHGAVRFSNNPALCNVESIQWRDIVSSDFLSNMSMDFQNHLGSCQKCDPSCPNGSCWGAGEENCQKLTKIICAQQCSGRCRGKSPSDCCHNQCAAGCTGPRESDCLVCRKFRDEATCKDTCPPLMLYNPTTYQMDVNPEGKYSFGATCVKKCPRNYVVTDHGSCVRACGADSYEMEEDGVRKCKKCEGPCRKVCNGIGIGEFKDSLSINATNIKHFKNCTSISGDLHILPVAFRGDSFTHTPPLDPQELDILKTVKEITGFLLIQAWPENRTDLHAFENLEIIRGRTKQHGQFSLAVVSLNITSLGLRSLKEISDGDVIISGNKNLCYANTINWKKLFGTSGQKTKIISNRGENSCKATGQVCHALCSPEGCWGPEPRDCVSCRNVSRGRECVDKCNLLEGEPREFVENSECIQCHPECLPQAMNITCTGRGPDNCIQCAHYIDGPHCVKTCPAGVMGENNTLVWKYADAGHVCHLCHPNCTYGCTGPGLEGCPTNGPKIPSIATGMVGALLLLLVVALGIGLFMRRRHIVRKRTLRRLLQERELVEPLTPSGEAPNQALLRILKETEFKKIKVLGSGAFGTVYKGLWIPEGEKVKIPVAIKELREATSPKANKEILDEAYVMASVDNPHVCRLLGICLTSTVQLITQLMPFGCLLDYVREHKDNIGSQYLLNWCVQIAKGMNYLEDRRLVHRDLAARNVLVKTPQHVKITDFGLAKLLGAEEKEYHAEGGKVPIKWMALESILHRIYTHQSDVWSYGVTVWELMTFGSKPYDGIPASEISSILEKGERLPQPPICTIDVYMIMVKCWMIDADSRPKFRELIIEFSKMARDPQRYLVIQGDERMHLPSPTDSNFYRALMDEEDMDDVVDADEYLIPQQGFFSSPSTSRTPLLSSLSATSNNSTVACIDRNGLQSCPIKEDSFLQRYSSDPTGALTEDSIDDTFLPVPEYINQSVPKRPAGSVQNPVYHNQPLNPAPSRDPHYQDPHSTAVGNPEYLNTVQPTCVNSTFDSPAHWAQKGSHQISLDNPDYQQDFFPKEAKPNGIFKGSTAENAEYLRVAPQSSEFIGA
Procedure, shortened: as §1

[1] = test system: BTK signaling in Ramos cells; test: BTK Ramos cellular assay (PLCγ2 phosphorylation); type: cell-based; details: Homo sapiens; for IC50: Ramos cells, PLCγ2 phosphorylation, read-out: BTK Inhibition

Row | IC50 (ITK) | IC50 (EGFR (T790M/L858R)) | IC50 (EGFR (WT)) | IC50 [1] | SMILES | inhibition at 1 µM ([1]; Ramos, at 1 μM, 1 hour)
1 | 10 to 100 nM | ≤ 10 nM | ≤ 10 nM |  | C=CC(=O)Nc1cccc(Nc2cc(Nc3ccccc3)ncn2)n1 [I-94] | 
2 | ≤ 10 nM |  | ≤ 10 nM | ≤ 10 nM | CN(C)C/C=C/C(=O)N(C)c1cccc(Nc2cc(Nc3ccc(Oc4ccccc4)cc3)ncn2)n1 [I-79, (E)-4-(dimethylamino)-N-methyl-N-(6-(6-(4-phenoxyphenylamino)pyrimidin-4-ylamino)pyridine-2-yl)but-2-enamide] | 
3 | 10 to 100 nM | 10 to 100 nM | ≤ 10 nM |  | C=CC(=O)Nc1cccc(Nc2cc(Oc3cccc(C)c3)ncn2)n1 [I-65] | 
4 |  | ≤ 10 nM | ≤ 10 nM |  | C=CC(=O)Nc1cccc(Nc2cc(Nc3cccc(Br)c3)ncn2)c1 [I-1, N-{3-[6-(3-bromophenylamino)-pyrimidin-4-ylamino]-phenyl}-2-propenamide] | 
5 | 1000 to 10000 nM | ≤ 10 nM | ≤ 10 nM | ≤ 10 nM | C=CC(=O)Nc1cccc(Nc2cc(Nc3ccc(Oc4ccccc4)cc3)ncn2)n1 [I-63] | 
6 | 10 to 100 nM |  | ≤ 10 nM | ≤ 10 nM | C=CC(=O)N(C)c1cccc(Nc2cc(Nc3ccc(Oc4ccccc4)cc3)ncn2)n1 [I-78, N-methyl-N-(6-(6-(4-phenoxyphenylamino)pyrimidin-4-ylamino)pyridin-2-yl)acrylamide] | 
7 | 1000 to 10000 nM | 100 to 1000 nM | ≤ 10 nM |  | C=CC(=O)Nc1cccc(Nc2cc(Oc3ccc(Oc4ccccc4)cc3)ncn2)n1 [I-66] | 
8 | 10 to 100 nM |  |  | 10 to 100 nM | CN(C)C/C=C/C(=O)Nc1cccc(Nc2cc(Nc3ccc(Oc4ccccc4)cc3)ncn2)n1 [I-64, (E)-4-(dimethylamino)-N-(6-(6-(4-phenoxyphenylamino)pyrimidin-4-ylamino)pyridine-2-yl)but-2-enamide] | 
9 | 10 to 100 nM |  | ≤ 10 nM | ≤ 10 nM | Cc1cccc(Oc2cc(Nc3cccc(NC(=O)/C=C/CN(C)C)n3)ncn2)c1 [I-81] | 

Row | SMILES | IC50 (ITK) | IC50 (EGFR (T790M/L858R)) | IC50 (EGFR (WT)) | IC50 [1] | inhibition at 1 µM ([1]; Ramos, at 1 μM, 1 hour)
10 | C=CC(=O)Nc1cccc(Nc2cc(Nc3ccc(Oc4ccccc4)cc3)ncn2)c1 [I-13, N-{3-[6-(4-phenoxyphenylamino)-pyrimidin-4-ylamino]phenyl}-2 propenamide] | 1000 to 10000 nM | 10 to 100 nM | ≤ 10 nM | 10 to 100 nM | 85%
